Columns and labels:
Experiment in all cases: relative viability (nuclei count vs DMSO), 5 days (fraction); higher = more cells survive
[1] = test system: 201T
How it was run: (§1)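 Lung cancer cell lines were seeded in 1536-well plates and dosed by pin tool the next day, with either a single drug or a fixed anchor-drug dose combined with five library-drug doses (not always all listed) spaced in √10 steps. Five days later, one step fixed the cells and stained their nuclei (final 0.05% Triton X-100, 1% formaldehyde, 1 ug/ml Hoechst), and nuclei were counted on 4× images. Relative viability is the nuclei count in treated wells divided by the count in vehicle wells, and each value is the median of duplicate plates.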

[2] = test system: EPLC-272H
How it was run: as §1

[3] = test system: HCC-15
How it was run: as §1

[4] = test system: HCC-78
How it was run: as §1

[5] = test system: LCLC-97TM1
How it was run: as §1

[6] = test system: LU99A
How it was run: as §1

[7] = test system: NCI-H1355
How it was run: as §1

[8] = test system: NCI-H1395
How it was run: as §1

[9] = test system: NCI-H2009
How it was run: as §1

[10] = test system: NCI-H2085
How it was run: as §1

[11] = test system: NCI-H2126
How it was run: as §1

[12] = test system: NCI-H2228
How it was run: as §1

[13] = test system: NCI-H23
How it was run: as §1

[14] = test system: NCI-H2405
How it was run: as §1

[15] = test system: NCI-H322M
How it was run: as §1

[16] = test system: NCI-H460
How it was run: as §1

[17] = test system: NCI-H647
How it was run: as §1

[18] = test system: NCI-H650
How it was run: as §1

[19] = test system: NCI-H661
How it was run: as §1

[20] = test system: NCI-H838
How it was run: as §1

[21] = test system: PC-14
How it was run: as §1

For `Cc1cn(-c2cc(NC(=O)c3ccc(C)c(Nc4nccc(-c5cccnc5)n4)c3)cc(C(F)(F)F)c2)cn1` [Nilotinib] + Cc1nc(NC(=O)N2CCC[C@H]2C(N)=O)sc1-c1ccnc(C(C)(C)C(F)(F)F)c1 [Alpelisib] (partner 2 µM), the relative viability ([1]; first compound 0.003162 µM) was 1.11, the relative viability ([1]; first compound 0.01 µM) was 1.09 and the relative viability ([1]; first compound 0.1 µM) was 1.07. For the same compound, the relative viability ([2]; first compound 0.003162 µM) was 1.01, the relative viability ([2]; first compound 0.03162 µM) was 0.894 and the relative viability ([2]; first compound 0.1 µM) was 0.763. It also gave a relative viability ([3]; first compound 0.001 µM) of 0.824, a relative viability ([3]; first compound 0.003162 µM) of 1.11 and a relative viability ([3]; first compound 0.01 µM) of 1.05. It also gave a relative viability ([3]; first compound 0.03162 µM) of 0.727, a relative viability ([3]; first compound 0.1 µM) of 0.616 and a relative viability ([4]; first compound 0.001 µM) of 0.347. The relative viability ([4]; first compound 0.003162 µM) was 0.381, the relative viability ([4]; first compound 0.01 µM) was 0.444 and the relative viability ([4]; first compound 0.03162 µM) was 0.34. It also gave a relative viability ([4]; first compound 0.1 µM) of 0.382, a relative viability ([5]; first compound 0.003162 µM) of 0.311 and a relative viability ([5]; first compound 0.01 µM) of 0.279. The relative viability ([5]; first compound 0.03162 µM) was 0.22, the relative viability ([5]; first compound 0.1 µM) was 0.275 and the relative viability ([6]; first compound 0.001 µM) was 0.495. For the same compound, the relative viability ([6]; first compound 0.003162 µM) was 0.531, the relative viability ([6]; first compound 0.01 µM) was 0.518 and the relative viability ([6]; first compound 0.03162 µM) was 0.48. For the same compound, the relative viability ([6]; first compound 0.1 µM) was 0.377, the relative viability ([7]; first compound 0.001 µM) was 0.764 and the relative viability ([7]; first compound 0.003162 µM) was 1.08. For the same compound, the relative viability ([7]; first compound 0.01 µM) was 0.974, the relative viability ([7]; first compound 0.03162 µM) was 0.784 and the relative viability ([7]; first compound 0.1 µM) was 0.931. For the same compound, the relative viability ([8]; first compound 0.001 µM) was 0.877, the relative viability ([8]; first compound 0.003162 µM) was 0.929 and the relative viability ([8]; first compound 0.03162 µM) was 0.977. The relative viability ([8]; first compound 0.1 µM) was 0.99, the relative viability ([9]; first compound 0.001 µM) was 1.13 and the relative viability ([9]; first compound 0.003162 µM) was 1.2. The relative viability ([9]; first compound 0.01 µM) was 1.25, the relative viability ([9]; first compound 0.03162 µM) was 1.14 and the relative viability ([9]; first compound 0.1 µM) was 1.14. The relative viability ([10]; first compound 0.001 µM) was 0.967, the relative viability ([10]; first compound 0.003162 µM) was 1.05 and the relative viability ([10]; first compound 0.01 µM) was 1.07. The relative viability ([10]; first compound 0.03162 µM) was 0.87, the relative viability ([10]; first compound 0.1 µM) was 0.92 and the relative viability ([11]; first compound 0.001 µM) was 0.732. The relative viability ([11]; first compound 0.003162 µM) was 0.809, the relative viability ([11]; first compound 0.01 µM) was 0.85 and the relative viability ([11]; first compound 0.03162 µM) was 0.829. It also gave a relative viability ([11]; first compound 0.1 µM) of 0.575, a relative viability ([12]; first compound 0.001 µM) of 0.602 and a relative viability ([12]; first compound 0.003162 µM) of 0.763. For the same compound, the relative viability ([12]; first compound 0.01 µM) was 0.814, the relative viability ([12]; first compound 0.03162 µM) was 0.813 and the relative viability ([12]; first compound 0.1 µM) was 0.455. For the same compound, the relative viability ([13]; first compound 0.001 µM) was 0.654, the relative viability ([13]; first compound 0.003162 µM) was 0.784 and the relative viability ([13]; first compound 0.01 µM) was 0.773. The relative viability ([13]; first compound 0.03162 µM) was 0.536, the relative viability ([13]; first compound 0.1 µM) was 0.665 and the relative viability ([14]; first compound 0.001 µM) was 0.808. The relative viability ([14]; first compound 0.003162 µM) was 0.733, the relative viability ([14]; first compound 0.01 µM) was 0.715 and the relative viability ([14]; first compound 0.03162 µM) was 0.597. It also gave a relative viability ([14]; first compound 0.1 µM) of 0.486, a relative viability ([15]; first compound 0.001 µM) of 0.882 and a relative viability ([15]; first compound 0.003162 µM) of 0.817. The relative viability ([15]; first compound 0.03162 µM) was 0.72, the relative viability ([15]; first compound 0.1 µM) was 0.866 and the relative viability ([16]; first compound 0.001 µM) was 0.518. The relative viability ([16]; first compound 0.003162 µM) was 0.88, the relative viability ([16]; first compound 0.01 µM) was 0.936 and the relative viability ([16]; first compound 0.03162 µM) was 0.312. It also gave a relative viability ([16]; first compound 0.1 µM) of 0.41, a relative viability ([17]; first compound 0.001 µM) of 0.956 and a relative viability ([17]; first compound 0.003162 µM) of 1.16. The relative viability ([17]; first compound 0.03162 µM) was 0.958, the relative viability ([17]; first compound 0.1 µM) was 0.872 and the relative viability ([18]; first compound 0.001 µM) was 1. For the same compound, the relative viability ([18]; first compound 0.003162 µM) was 1.09, the relative viability ([18]; first compound 0.01 µM) was 1.4 and the relative viability ([18]; first compound 0.03162 µM) was 0.989. It also gave a relative viability ([18]; first compound 0.1 µM) of 1.23, a relative viability ([19]; first compound 0.001 µM) of 0.647 and a relative viability ([19]; first compound 0.003162 µM) of 0.592. The relative viability ([19]; first compound 0.01 µM) was 0.721, the relative viability ([19]; first compound 0.03162 µM) was 0.366 and the relative viability ([19]; first compound 0.1 µM) was 0.651. For the same compound, the relative viability ([20]; first compound 0.001 µM) was 1.06, the relative viability ([20]; first compound 0.003162 µM) was 1.31 and the relative viability ([20]; first compound 0.01 µM) was 1.26. It also gave a relative viability ([20]; first compound 0.1 µM) of 1.09, a relative viability ([21]; first compound 0.003162 µM) of 1.08 and a relative viability ([21]; first compound 0.03162 µM) of 0.547. For the same compound, the relative viability ([21]; first compound 0.1 µM) was 0.888.

— the supplement of paper PMC10307832
